In patent publication US9671406B2, “SPARC and methods of use thereof” (Abraxis BioScience, LLC, priority 2006, dated 2017):

System: gp60-mediated caveolar transcytosis
Test: Inhibition of transport of paclitaxel from ABX across endothelial monolayers
Type: cell-based, human
Details: FIG. 4
Excerpt: Transport was dependent on albumin.

Row | Compound | effect on transport of paclitaxel from ABX across endothelial monolayers
1 | CCN1C(=O)C=CC1=O [NEM] | inhibited
2 | β-methyl cyclodextrin [BMC] | inhibited
